Source: patent US8759376B2, “Isoxazole and isothiazole compounds useful in the treatment of inflammation” (The Feinstein Institute for Medical Research, priority 2003, dated 2014)
Values joined by “and” are separate entries in the source; they are usually repeats but may differ in a detail not shown here. Equal values may be shown once.

Columns and labels:
TNF = TNF production by LPS-stimulated primary human macrophages (ELISA); type: cell-based; settings: LPS 100 ng/ml, 4 hours
Protocol: Human macrophage cultures were prepared as follows. Buffy coats were collected from the blood of healthy individual donors to the Long Island Blood Bank Services (Melville, N.Y.). Primary blood mononuclear cells were isolated by density-gradient centrifugation through Ficoll/Hypaque (Pharmacia, N.J.), suspended (8×10^6 cells/ml) in RPMI 1640 medium supplemented with 10% heat inactivated human serum (Gemini Bio-Products, Inc., Calabasas, Calif.), and seeded in flasks (PRIMARIA; Beckton and Dickinson Labware, Franklin Lakes, N.J.). After incubation for 2 hours at 37° C., adherent cells were washed extensively, treated briefly with 10 mM EDTA, detached, resuspended (10^6 cells/ml) in RPMI medium (10% human serum), supplemented with human macrophage colony stimulating factor (MCSF; Sigma Chemical Co., St. Louis, Mo.; 2 ng/ml), and seeded onto 24-well tissue culture plates (PRIMARIA; Falcon) (10^6 cells/well). Cells were allowed to differentiate for 7 days in the presence of MCSF. On day 7 the cells were washed 3 times with 1× Dulbecco's phosphate buffered saline (PBS, GibcoBRL, Life Technologies, Rockville, Md.), fresh medium devoid of MCSF was added, and experiments performed as indicated. […]

[1] = test system: α-bungarotoxin sensitive receptor on the RAW 264.7 cells; type: cell-based, murine
female BALB/c mice = test: Localized Shwartzman reaction model, ear immunostaining; type: in vivo; settings: i.p.; ears 5 hours after LPS challenge; compared to vehicle-treated animals
Protocol: The localized Shwartzman reaction was performed as previously described (C. Sunderkotter, S. Seeliger, F. Schonlau, J. Roth, R. Hallmann, T. A. Luger, C. Sorg, and G. Kolde. 2001. Different pathways leading to cutaneous leukocytoclastic vasculitits in mice. Exp Dermatol 10:391-404.). Briefly, female BALB/c mice (22-26 g, Taconic) were injected with saline or Compound VIf (i.p., at the indicated doses), and then injected s.c. into the pinnae of the ear with 20 Φg LPS (preparatory dose). One day later, mice (4 per group) were injected either with vehicle (saline) or […] (i.p., at the indicated doses) 15 min prior to challenge with LPS (150 Φg, i.p.) To generate a localized vasculitic reaction. Five hours later, mice were sacrificed by CO2 asphyxiation, and the ears were excised and cut in half longitudinally. Ears were flash frozen in liquid nitrogen and stored at −80 EC. Each experiment was repeated twice. […]
After immunostaining, slides were counterstained with H&E, dehydrated, and mounted with permount. For enumeration of positive staining, three fields per section (three sections per sample) were assessed at 200× magnification and scored as the average number (+SD) of VCAM-1 or E-selectin positive capillaries/vessels. […]

[2] = test system: female Swiss Webster mice; test: Carrageenan air pouch model, pouch fluid cytokines by ELISA; type: in vivo; settings: 12 mg/kg i.p.

## c1ccc(C2CC(c3cccnc3)=NO2)nc1 (centres unmarked) [(VI d)]
TNF
  TNF release: inhibited TNF release in a dose dependent manner
  efficacy on TNF release compared with control (nicotine): comparable to or better than that of the control

## α-bungarotoxin
[1]
  effect on the inhibition of LPS-mediated TNFα release by compound (VI f): partially abrogated the inhibitory effect

## c1cncc(C2=NOC(c3ccncc3)C2)c1 (centres unmarked) [Compound (VI f)]
Female BALB/c mice
  E-selectin protein expression by the endothelium: reduced
  VCAM-1 protein expression by the endothelium: reduced
[2]
  reduction of pouch fluid levels of MCP-1: 20% and 30%
[2]; compared to vehicle-treated controls
  reduction of pouch TNF levels: 40%
[2]; control 100±7%
  pouch TNF level, % of control: 60±11%
